From patent publication US9049864B2, “Pyridazinone herbicidal compounds” (Syngenta Limited, priority 2012, dated 2015)

How the values were obtained:
Assay in all cases: Post-emergence herbicidal glasshouse test, percentage damage to the plant
Format in all cases: in vivo
Settings in all cases: post-emergence, 1000 g/ha, evaluated after 13 days
[1] = system: Alopecurus myosuroides (ALOMY)
Method: (§1) Seeds of a variety of test species are sown in standard soil in pots:—Solanum nigrum (SOLNI), Amaranthus retoflexus (AMARE), Setaria faberi (SETFA), Alopecurus myosuroides (ALOMY), Echinochloa crus-galli (ECHCG), Ipomoea hederacea (IPOHE). After 8 days cultivation (post-emergence) under controlled conditions in a glasshouse (at 24/16° C., day/night; 14 hours light; 65% humidity), the plants are sprayed with an aqueous spray solution derived from the formulation of the technical active ingredient in acetone/water (50:50) solution containing 0.5% Tween 20 (polyoxyethelyene sorbitan monolaurate, CAS RN 9005-64-5). Compounds are applied at 1000 g/ha. The test plants are then grown in a glasshouse under controlled conditions in a glasshouse (at 24/16° C., day/night; 14 hours light; 65% humidity) and watered twice daily. After 13 days, the test is evaluated for the percentage damage caused to the plant. The biological activities are shown in the following table on a five point scale (5=80-100%; 4=60-79%; 3=40-59%; 2=20-39%; 1=0-19%). A comparative experiment is conducted to compare the biological efficacy of a compound of the present invention with those of WO 2011/045271. The test is performed as outlined above using the following compounds. Three different application rates are employed (250 g/ha, 500 g/ha and 1000 g/ha).

[2] = system: Amaranthus retoflexus (AMARE)
Method: as §1

[3] = system: Echinochloa crus-galli (ECHCG)
Method: as §1

[4] = system: Ipomoea hederacea (IPOHE)
Method: as §1

Setaria faberi (SETFA) = system: Setaria faberi (SETFA)
Method: as §1

Solanum nigrum (SOLNI) = system: Solanum nigrum (SOLNI)
Method: as §1

SMILES | POST Application ALOMY, percentage damage (five point scale) [1] | POST Application AMARE, percentage damage (five point scale) [2] | POST Application ECHCG, percentage damage (five point scale) [3] | POST Application IPOHE, percentage damage (five point scale) [4] | POST Application SETFA, percentage damage (five point scale) (Setaria faberi (SETFA)) | POST Application SOLNI, percentage damage (five point scale) (Solanum nigrum (SOLNI))
CCSC1=NN(C)C(=O)C(n2c(Cl)c(Cl)c3ccccc32)C1=O (stereo not drawn) [Compound 2.017] | 1 (1=0-19%) | 4 (4=60-79%) | 2 (2=20-39%) | 1 (1=0-19%) | 1 (1=0-19%) | 3 (3=40-59%)
COCC1=NN(C)C(=O)C(n2c(Cl)c(Cl)c3ccccc32)C1=O (stereo not drawn) [Compound 2.008] | 1 (1=0-19%) | 3 (3=40-59%) | 1 (1=0-19%) | 5 (5=80-100%) | 1 (1=0-19%) | 5 (5=80-100%)
CC1=NN(C)C(=O)C(n2c(Br)c(Br)c3cc(Br)ccc32)C1=O (stereo not drawn) [Compound 1.022] | 1 (1=0-19%) | 3 (3=40-59%) | 2 (2=20-39%) | 5 (5=80-100%) | 1 (1=0-19%) | 5 (5=80-100%)
Cc1nn(C)c(=O)c(-n2c(Cl)c(Cl)c3ccccc32)c1OC(=O)OC(C)C [Compound 3.011] | 1 (1=0-19%) | 5 (5=80-100%) | 4 (4=60-79%) | 5 (5=80-100%) | 2 (2=20-39%) | 5 (5=80-100%)
CC(C)N1N=CC(=O)C(n2cc(Cl)c3ccccc32)C1=O (stereo not drawn) [Compound 1.010] | 1 (1=0-19%) | 1 (1=0-19%) | 1 (1=0-19%) | 1 (1=0-19%) | 1 (1=0-19%) | 3 (3=40-59%)
CN1N=C(C2CC2)C(=O)C(n2c(Cl)c(Cl)c3ccccc32)C1=O (stereo not drawn) [Compound 2.026] | 1 (1=0-19%) | 4 (4=60-79%) | 1 (1=0-19%) | 5 (5=80-100%) | 2 (2=20-39%) | 5 (5=80-100%)
CC(C)CC1=NN(C)C(=O)C(n2c(Cl)c(Cl)c3ccccc32)C1=O (stereo not drawn) [Compound 2.009] | 1 (1=0-19%) | 1 (1=0-19%) | 1 (1=0-19%) | 2 (2=20-39%) | 1 (1=0-19%) | 4 (4=60-79%)
CC1=NN(C)C(=O)C(n2c(Cl)c(Br)c3ccccc32)C1=O (stereo not drawn) [Compound 1.021] | 2 (2=20-39%) | 5 (5=80-100%) | 2 (2=20-39%) | 5 (5=80-100%) | 1 (1=0-19%) | 5 (5=80-100%)
CN1N=CC(=O)C(n2ccc3cc(Cl)ccc32)C1=O (stereo not drawn) [Compound 1.017] | 1 (1=0-19%) | 3 (3=40-59%) | 1 (1=0-19%) | 4 (4=60-79%) | 1 (1=0-19%) | 5 (5=80-100%)
CC1=NN(C)C(=O)C(n2c(Br)c(Cl)c3ccccc32)C1=O (stereo not drawn) [Compound 1.026] | 2 (2=20-39%) | 5 (5=80-100%) | 4 (4=60-79%) | 5 (5=80-100%) | 3 (3=40-59%) | 5 (5=80-100%)
COC(=O)Oc1c(C)nn(C)c(=O)c1-n1nc(Cl)c2ccccc21 [Compound 3.005] | 1 (1=0-19%) | 4 (4=60-79%) | 3 (3=40-59%) | 5 (5=80-100%) | 1 (1=0-19%) | 5 (5=80-100%)
CC(=O)Oc1c(C)nn(C)c(=O)c1-n1nc(Cl)c2ccccc21 [Compound 3.006] | 2 (2=20-39%) | 4 (4=60-79%) | 4 (4=60-79%) | 5 (5=80-100%) | 1 (1=0-19%) | 5 (5=80-100%)
CN1N=CC(=O)C(n2ccc3ccccc32)C1=O (stereo not drawn) [Compound 1.014] | 1 (1=0-19%) | 3 (3=40-59%) | 4 (4=60-79%) | 4 (4=60-79%) | 1 (1=0-19%) | 5 (5=80-100%)
CC1=NN(C)C(=O)C(n2c(C)cc3ccccc32)C1=O (stereo not drawn) [Compound 4.026] | 2 (2=20-39%) | 4 (4=60-79%) | 2 (2=20-39%) | 5 (5=80-100%) | 3 (3=40-59%) | 5 (5=80-100%)
CC1=NN(C)C(=O)C(n2c(Cl)c(Cl)c3ccccc32)C1=O (stereo not drawn) [Compound 1.003, 4-(2,3-dichloroindol-1-yl)-2,6-dimethyl-pyridazine-3,5-dione] | 1 (1=0-19%) | 5 (5=80-100%) | 2 (2=20-39%) | 5 (5=80-100%) | 1 (1=0-19%) | 5 (5=80-100%)
Cc1cn(C2C(=O)C=NN(C)C2=O)c2ccccc12 (stereo not drawn) [Compound 1.007] | 1 (1=0-19%) | 2 (2=20-39%) | 1 (1=0-19%) | 1 (1=0-19%) | 1 (1=0-19%) | 5 (5=80-100%)
C=C(C)C1=NN(C)C(=O)C(n2c(Cl)c(Cl)c3ccccc32)C1=O (stereo not drawn) [Compound 2.016] | 1 (1=0-19%) | 4 (4=60-79%) | 1 (1=0-19%) | 2 (2=20-39%) | 1 (1=0-19%) | 4 (4=60-79%)
CC(C)OCC1=NN(C)C(=O)C(n2c(Cl)c(Cl)c3ccccc32)C1=O (stereo not drawn) [Compound 2.014] | 1 (1=0-19%) | 2 (2=20-39%) | 1 (1=0-19%) | 5 (5=80-100%) | 1 (1=0-19%) | 4 (4=60-79%)
Cc1cccc2ccn(C3C(=O)C=NN(C)C3=O)c12 (stereo not drawn) [Compound 1.008] | 1 (1=0-19%) | 1 (1=0-19%) | 1 (1=0-19%) | 2 (2=20-39%) | 1 (1=0-19%) | 4 (4=60-79%)
CC(C)C1=NN(C)C(=O)C(n2c(Cl)c(Cl)c3ccccc32)C1=O (stereo not drawn) [Compound 2.013] | 1 (1=0-19%) | 3 (3=40-59%) | 1 (1=0-19%) | 2 (2=20-39%) | 1 (1=0-19%) | 4 (4=60-79%)
